{"source": "patent US20100227889A1", "about": "“Benzimidazole Derivatives” (priority 2006, published 2010)"}
{"target": "T1, human PCaR (Homo sapiens, UniProt P41180)", "T1 construct": "expressed in transfected cells; host or cells: CCL39 fibroblasts (stably transfected)", "T1 sequence (P41180 20-1078)": "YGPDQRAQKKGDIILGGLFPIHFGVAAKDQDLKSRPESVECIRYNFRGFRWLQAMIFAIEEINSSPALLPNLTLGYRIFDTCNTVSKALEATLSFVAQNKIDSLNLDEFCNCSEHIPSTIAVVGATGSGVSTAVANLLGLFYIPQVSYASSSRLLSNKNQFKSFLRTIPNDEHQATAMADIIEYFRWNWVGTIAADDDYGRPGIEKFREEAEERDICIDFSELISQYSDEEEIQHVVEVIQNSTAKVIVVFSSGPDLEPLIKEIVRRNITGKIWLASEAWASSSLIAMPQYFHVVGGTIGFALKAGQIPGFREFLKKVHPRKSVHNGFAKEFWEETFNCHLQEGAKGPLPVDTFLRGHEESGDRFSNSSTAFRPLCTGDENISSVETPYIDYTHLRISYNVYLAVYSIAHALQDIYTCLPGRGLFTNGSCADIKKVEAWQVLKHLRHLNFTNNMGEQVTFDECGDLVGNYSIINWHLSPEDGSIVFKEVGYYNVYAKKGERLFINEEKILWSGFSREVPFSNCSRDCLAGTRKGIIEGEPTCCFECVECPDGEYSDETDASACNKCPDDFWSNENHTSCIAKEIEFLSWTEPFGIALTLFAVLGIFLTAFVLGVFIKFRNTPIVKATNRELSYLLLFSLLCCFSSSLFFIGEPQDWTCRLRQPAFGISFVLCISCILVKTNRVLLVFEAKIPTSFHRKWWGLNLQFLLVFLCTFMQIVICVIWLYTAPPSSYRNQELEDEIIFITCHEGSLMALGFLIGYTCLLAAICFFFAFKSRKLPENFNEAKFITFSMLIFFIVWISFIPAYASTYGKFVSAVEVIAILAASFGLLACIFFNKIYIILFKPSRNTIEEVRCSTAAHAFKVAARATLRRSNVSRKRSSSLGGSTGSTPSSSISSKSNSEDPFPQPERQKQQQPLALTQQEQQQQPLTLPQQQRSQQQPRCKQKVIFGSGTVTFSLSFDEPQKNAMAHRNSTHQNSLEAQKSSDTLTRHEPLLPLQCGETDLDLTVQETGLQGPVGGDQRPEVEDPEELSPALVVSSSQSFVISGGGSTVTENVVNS", "assay": "Assay for intracellular free calcium (inhibition of calcium transients stimulated by extracellular calcium)", "assay_type": "cell-based", "conditions": "CCL39 fibroblasts stably transfected with human PCaR; \"based on the above described assay\"", "protocol": "An alternative method to determine antagonism at the PCaR consists in measuring the inhibition of intracellular calcium transients stimulated by extracellular calcium. CCL39 fibroblasts stably transfected with human PCaR are seeded at 40′000 cells/well into 96-well Viewplates and incubated for 24 hours. Medium is then removed and replaced with fresh medium containing 2 μM Fluo-3 AM (Molecular Probes, Leiden, The Netherlands), In routine experiments, cells are incubated at 37° C., 5% CO2 for 1 h. Afterwards, plates are washed twice with mHBS and wells are refilled with 100 μl mHBS containing the test compounds. Incubation is continued at room temperature for 15 minutes. To record changes of intracellular free calcium, plates are transferred to fluorescence-imaging plate reader (Molecular Devices, Sunnyvale, Calif., USA). A baseline consisting in 5 measurements of 0.4 seconds each (laser excitation 488 nm) is recorded. Cells are then stimulated with calcium (2.5 mM final), and fluorescence changes recorded over a period of 3 minutes.", "units": {"IC50": "nM"}}
{"smiles": "COCCn1c(-c2ccc(C(C)C)cc2)nc2c(Br)c(Cc3cccnc3SC)cc(OC)c21", "note": "[Example 1, 4-Bromo-2-(4-isopropyl-phenyl)-7-methoxy-1-(2-methoxy-ethyl)-5-(2-methylsulfanyl-pyridin-3-ylmethyl)-1H-benzoimidazole]", "IC50": 3.4}
{"smiles": "C#CCOc1ncccc1Cc1cc(OC)c2c(nc(-c3ccc(C(C)C)cc3)n2CCOC)c1C(F)(F)F", "note": "[Example 9, 2-(4-Isopropyl-phenyl)-7-methoxy-1-(2-methoxy-ethyl)-5-(2-prop-2-ynyloxy-pyridin-3-ylmethyl)-4-trifluoromethyl-1H-benzoimidazole]", "IC50": 1.8}
{"smiles": "COCCn1c(-c2ccc(C(C)C)cc2)nc2c(C(F)(F)F)c(Cc3cccnc3OC(C)C)cc(OC)c21", "note": "[Example 8, 5-(2-Isopropoxy-pyridin-3-ylmethyl)-2-(4-Isopropyl-phenyl)-7-methoxy-1-(2-methoxy-ethyl)-4-trifluoromethyl-1H-benzoimidazole]", "IC50": 3.2}
{"smiles": "COCCn1c(-c2ccc(C(C)C)cc2)nc2c(C(F)(F)F)c(Cc3cccnc3[S+](C)[O-])cc(OC)c21", "note": "(stereo not shown) [Example 3, 2-(4-Isopropyl-phenyl)-5-(2-methanesulfinyl-pyridin-3-ylmethyl)-7-methoxy-1-(2-methoxy-ethyl)-4-trifluoromethyl-1H-benzoimidazole]", "IC50": 2.6}
